US9850273B2, “Combination of estrogens plus antiprogestins with significant partial agonistic effect as an effective treatment of menopausal symptoms and for prevention of the occurrence of breast cancer” (Evestra, Inc., priority 2014, dated 2017)
Where two headings read alike, the source gives them in different places.

Columns and labels:
progesterone receptor [1] = biological target: T1, progesterone receptor (Homo sapiens, UniProt P06401); test: PR transactivation assay, antagonistic activity (PR luciferase reporter); format: cell-based; conditions: for Ratio of IC50's: PR agonism / PR antagonism
T1 sequence (P06401 165-933 limits assumed): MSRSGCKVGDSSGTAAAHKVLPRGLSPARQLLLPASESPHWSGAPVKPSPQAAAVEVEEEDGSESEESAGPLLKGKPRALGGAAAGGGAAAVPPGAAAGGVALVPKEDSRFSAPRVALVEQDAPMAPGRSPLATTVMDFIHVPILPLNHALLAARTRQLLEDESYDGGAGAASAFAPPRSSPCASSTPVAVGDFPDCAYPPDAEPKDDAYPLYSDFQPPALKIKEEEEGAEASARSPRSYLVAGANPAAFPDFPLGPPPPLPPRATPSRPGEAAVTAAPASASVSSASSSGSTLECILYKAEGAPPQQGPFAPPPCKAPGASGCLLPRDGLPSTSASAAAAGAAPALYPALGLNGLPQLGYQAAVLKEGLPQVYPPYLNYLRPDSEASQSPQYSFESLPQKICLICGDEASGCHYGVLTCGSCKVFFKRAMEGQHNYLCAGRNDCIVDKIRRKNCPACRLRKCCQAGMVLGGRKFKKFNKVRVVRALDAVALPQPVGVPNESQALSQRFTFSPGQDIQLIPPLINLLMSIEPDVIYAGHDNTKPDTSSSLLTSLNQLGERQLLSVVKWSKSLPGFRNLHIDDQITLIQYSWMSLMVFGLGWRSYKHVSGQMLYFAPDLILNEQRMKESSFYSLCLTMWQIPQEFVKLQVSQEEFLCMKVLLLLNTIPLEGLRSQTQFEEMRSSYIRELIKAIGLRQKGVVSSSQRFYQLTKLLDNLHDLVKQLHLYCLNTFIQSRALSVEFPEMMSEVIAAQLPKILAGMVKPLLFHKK
Experimental: (§1) Transactivation Assay for Progesterone Agonist and Antagonistic Activity (See Table 1).
Experimental: PR transactivation studies was carried out in human breast cancer (T47D) cells, grown in RPMI medium without phenol red and 5% charcoal stripped fetal bovine serum, transiently transfected with PR luciferase reporter (CCS-6043L signal reporter assay kit, Qiagen). The cells were stimulated R5020 as PR agonist and treated in the presence or absence of the tested compounds for 24 hours.

progesterone receptor [2] = biological target: T2, progesterone receptor (Homo sapiens, UniProt P06401); test: PR transactivation assay, agonistic activity (PR luciferase reporter); format: cell-based; conditions: T47D cells
T2 sequence (P06401 679-933 limits assumed): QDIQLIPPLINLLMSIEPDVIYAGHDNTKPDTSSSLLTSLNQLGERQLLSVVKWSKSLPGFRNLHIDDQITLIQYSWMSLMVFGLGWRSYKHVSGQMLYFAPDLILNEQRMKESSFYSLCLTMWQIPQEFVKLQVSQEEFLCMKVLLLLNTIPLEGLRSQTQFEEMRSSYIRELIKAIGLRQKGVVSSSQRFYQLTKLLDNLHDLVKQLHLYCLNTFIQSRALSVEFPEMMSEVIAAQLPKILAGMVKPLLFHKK
Experimental: as §1
Experimental: PR transactivation studies was carried out in human breast cancer (T47D) cells, grown in RPMI medium without phenol red and 5% charcoal stripped fetal bovine serum, transiently transfected with PR luciferase reporter (CCS-6043L signal reporter assay kit, Qiagen). The cells were stimulated R5020 as PR agonist and treated in the presence or absence of the tested compounds for 24 hours. The effect was calculated using dual luciferase assay kit (Promega, WI)) based on RU486 as full antagonist and R5020 as agonist for progesterone receptor.

guinea pig = test: Guinea pig model (ovulation inhibition, uterine weight, vagina, ovary, classification); format: in vivo; conditions: for Classification: guinea pig model; for ER-/PR balance vagina. / Ovary (CL): at max. dose (10.mg/day s.c.); for Ovary (CL): CL = corpora lutea
[3] = tested on: estradiol-primed immature female rabbits; test: McPhail and anti-McPhail tests in rabbits; format: in vivo, rabbit
Excerpt: The McPhail test in the immature female rabbit is a well-established model to test progestatational and antiprogestational activity [McPhail 1934).

[4] = T47D cells, stimulant R5020, read-out: IC50 Average of 2 expts
[5] = Table 2 summary, read-out: PR antagonism (IC50)
[6] = stimulant R5020, read-out: EC50

Row | SMILES | Ratio of IC50's (progesterone receptor [1]) | Antagonist rel to RU486 (%) (progesterone receptor [1]; T47D cells, stimulant R5020) | IC50 (progesterone receptor [1]; [4]) [pM] | IC50 (progesterone receptor [1]; [5]) [pM] | Agonist rel to R5020 (%) (progesterone receptor [2]) | EC50 (progesterone receptor [2]; [6]) [pM] | Classification (guinea pig) | Uterine Weight at max. dose (10.mg/day s.c.) (guinea pig; guinea pig) | ER-/PR balance vagina. (guinea pig; guinea pig) | Ovary (CL) (guinea pig; guinea pig) | progestational activity (McPhail test) ([3]; dose of 3 mg/animal/day) | Ovulation Inhibition (guinea pig; guinea pig) | progestational activity (McPhail test) ([3]; estradiol-primed immature female rabbit) | antiprogestational activity (anti-McPhail test) ([3]; immature female rabbit) | EC50 (progesterone receptor [2]; control compound R5020, read-out: Control EC50) [pM] | ER-/PR balance vagina.: dose at which the dominance is seen (guinea pig; guinea pig)
1 | C[C@]12C[C@H](c3ccc(S(C)(=O)=O)cc3)C3=C4CCC(=O)C=C4CC[C@H]3[C@@H]1CC[C@@]2(O)C(F)(F)C(F)(F)F [BAY 1002670, reference compound] | 28.7 | 342.9 | 325 | 330 | 3.9 | 9500 | – | – | – | – | – | – | – | – | – | –
2 | CC(=O)O[C@]1(C(C)=O)CC[C@H]2[C@@H]3CCC4=CC(=O)CCC4=C3[C@@H](c3ccc(N(C)C)cc3)C[C@@]21C [CDB-2914, reference compound] | 38.4 | 120 | 650 | 650 | 1.5 | 21500 | blunted PR- | (1.01) | ER-domin. | degenerated | didn't show any activity at all | – | – | – | – | –
3 | CC[C@@H]1CC2C3CCC4=CC(=O)CCC4=C3[C@@H](c3ccc(-n4ccnc4)cc3)C[C@]2(C)C1C(C)=O (stereo partly drawn) [EC346, 11β-{4′-[1′ imidazolyl)phenyl}-16α-ethyl-19-norpregna-4,9-diene-3,20-dione] | – | 378 | 300 | – | 0.32 | – | mesoprogestin | 0.8 | PR-domin | degenerated | – | – | – | – | – | –
4 | C=C[C@@H]1CC2C3CCC4=CC(=O)CCC4=C3[C@@H](c3ccc(-c4ccoc4)cc3)C[C@]2(C)C1C(C)=O (stereo partly drawn) [EC345, 11β-{4′-[3′-furanyl)phenyl}-16α-ethenyl-19-norpregna-4,9-diene-3,20-dione] | – | 120 | 1000 | – | 0.65 | 49000 | – | – | – | – | – | – | – | – | – | –
5 | CC[C@@H]1CC2C3CCC4=CC(=O)CCC4=C3[C@@H](c3ccc(-c4ccoc4)cc3)C[C@]2(C)C1C(C)=O (stereo partly drawn) [EC343, 11β-{4′-[3′-furanyl)phenyl}-16α-ethyl-19-norpregna-4,9-diene-3,20-dione] | 2.2 | 57.1 | 2100 | 2100 | 6.4 | 4750 | – | – | – | – | – | – | – | – | – | –
6 | COCC(=O)[C@@]1(OC(C)=O)CC[C@H]2[C@@H]3CCC4=CC(=O)CCC4=C3[C@@H](c3ccc(N(C)C)cc3)C[C@@]21C [CDB-4124, reference compound] | 30.7 | 300 | 700 | 700 | 1.4 | 25000 | PR-antagonist | 1.41 | ER-domin. | deg. & | – | ≦10.0 mg | did not exhibit any progestational activity | higher antiprogestational activity than RU 486 | – | –
7 | CCC(=O)[C@@]1(C)CC[C@H]2[C@@H]3CCC4=CC(=O)CCC4=C3CC[C@@]21C [R5020, reference compound] | – | – | – | – | – | – | – | – | – | – | – | – | – | – | 350 | –
8 | CC[C@@H]1CC2C3CCC4=CC(=O)CCC4=C3[C@@H](c3ccc(-c4cccnc4)cc3)C[C@]2(C)C1C(C)=O (stereo partly drawn) [EC-342, 11β-{4′-[3′-pyridinyl)phenyl}-16α-ethyl-19-norpregna-4,9-diene-3,20-dione] | 5.7 | 120 | 950 | 950 | 7 | 5150 | mesoprogestin | 0.86 | PR-domin | degenerated | – | – | – | – | – | –
9 | C[C@]12C[C@H](c3ccc(-n4ccnc4)cc3)C3=C4CCC(=O)C=C4CCC3C1CC[C@@]2(O)C(F)(F)C(F)(F)F (stereo partly shown) [EC-317] | 217.3 | 255.3 | 460 | 460 | 0.35 | – | – | – | – | – | – | – | – | – | – | –
10 | C=C[C@@H]1CC2C3CCC4=CC(=O)CCC4=C3[C@@H](c3ccc(-n4ccnc4)cc3)C[C@]2(C)C1C(C)=O (stereo partly shown) [EC347] | 3.5 | 120 | 950 | 950 | 9.7 | 3400 | mesoprogestin | 1.01 | PR-domin | degenerated | – | – | – | – | – | –
11 | CC#C[C@]1(O)CC[C@H]2[C@@H]3CCC4=CC(=O)CCC4=C3[C@@H](c3ccc(N(C)C)cc3)C[C@@]21C [RU-486, reference compound] | – | – | – | – | – | – | – | (1.26) | – | – | – | – | – | – | – | ≧1.0 mg
12 | C=C1CCOC12CCC1C3CCC4=CC(=O)CCC4=C3[C@@H](c3ccc(-n4ccnc4)cc3)C[C@@]12C (stereo partly shown) [EC336] | 1.0 | 21.8 | 5000 | 5000 | 7 | 5000 | – | – | – | – | – | – | – | – | – | –
13 | C=C[C@@H]1CC2C3CCC4=CC(=O)CCC4=C3[C@@H](c3ccc(-c4cccnc4)cc3)C[C@]2(C)C1C(C)=O (stereo partly drawn) [EC344, 11β-{4′-[3′-pyridinyl)phenyl}-16α-ethenyl-19-norpregna-4,9-diene-3,20-dione] | – | 324 | 350 | – | 0.32 | – | – | – | – | – | – | – | – | – | – | –
14 | CC(=O)C1[C@H](C)CC2C3CCC4=CC(=O)CCC4=C3[C@@H](c3ccc(-c4cccnc4)cc3)C[C@@]21C (stereo partly drawn) [EC348, 11β-{4′-[3′-pyridinyl)phenyl}-16α-methyl-19-norpregna-4,9-diene-3,20-dione] | 11.8 | 292.7 | 390 | 390 | 7.0 | 4610 | mesoprogestin | 1.01 | PR-domin | degenerated | – | – | – | – | – | –
15 | COC[C@]1(OC)CC[C@H]2[C@@H]3CCC4=CC(=O)CCC4=C3[C@@H](c3ccc(/C=N/O)cc3)C[C@@]21C [ASOPRISNIL, reference compound] | – | – | 620 | 620 | – | 4900 | – | – | – | – | – | – | – | – | – | –
